Measurements from ChEMBL document CHEMBL1201862, “PubChem BioAssay data set” (2004).
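The compound was tested at five concentrations on cells cultured in 96-well plates, with a 48-hour exposure period. The concentration for 50% growth inhibition is given as GI50.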 Active and inactive are the calls of the source. Rule as the data show it: active = GI50 up to about 1.1 µM and inactive = higher. Residues, ends and D or L forms follow the SMILES beside them. *: point of attachment. Bn = c1ccc(C*)cc1

Experiments:
Assay in all cases: NCI-60 cell line screen, 48 h
[1] = tested on: UO-31
[2] = tested on: TK-10
[3] = tested on: PC-3
[4] = tested on: DU-145
[5] = tested on: BT-549
[6] = tested on: EKVX
[7] = tested on: K562
[8] = tested on: MCF7
[9] = tested on: ACHN
[10] = tested on: 786-0
[11] = tested on: SNB-19
[12] = tested on: SK-OV-3
[13] = tested on: HT-29
[14] = tested on: SF-539
[15] = tested on: Malme-3M
[16] = tested on: MDA-N
[17] = tested on: SF-295
[18] = tested on: LOX IMVI
[19] = tested on: OVCAR-4
[20] = tested on: A498

Measured: GI50

CC(C)(C)OC(=O)NC(Cc1ccccc1)NC(=O)NC(=O)OCc1ccccc1 (centres undefined)
inactive: [1] > 100 µM | [2] 53.2 µM | [3] 18.7 µM | [4] 87.1 µM | [5] 54.5 µM | [6] > 100 µM | [7] 74.5 µM | [8] > 100 µM | [9] 39.1 µM | [10] 34.4 µM | [11] 36.5 µM | [12] 54.6 µM | [13] > 100 µM | [14] 25.7 µM | [15] 41.8 µM | [16] 64 µM | [17] 36.6 µM

CCN(C(=S)N[C@@H](Cc1ccccc1)C(=O)N[C@@H](CC(C)C)C(=O)OC)c1ccccc1
inactive: [1] > 100 µM | [2] > 100 µM | [18] > 100 µM | [3] 63.1 µM | [4] > 100 µM | [19] > 100 µM | [5] 69 µM | [6] > 100 µM | [7] 43.2 µM | [8] 34 µM | [9] 47.3 µM | [10] > 100 µM | [11] 49.2 µM | [12] > 100 µM | [13] 46 µM | [14] > 100 µM | [15] > 100 µM | [16] > 100 µM | [17] > 100 µM

Cc1ccc(/C=C/C(=N/NC(=O)N/N=C(/C=C/c2ccc(C)cc2)C(C)C)C(C)C)cc1
inactive: [1] > 10 µM | [2] > 10 µM | [3] > 10 µM | [4] > 10 µM | [19] 1.5 µM | [5] > 10 µM | [6] > 10 µM | [7] > 10 µM | [8] > 10 µM | [9] > 10 µM | [10] > 10 µM | [11] > 10 µM | [13] > 10 µM | [15] > 10 µM | [16] > 10 µM | [17] > 10 µM

Brc1cc2nn(-c3ccccc3)nc2c2nonc12
inactive: [1] > 100 µM | [2] > 100 µM | [18] > 100 µM | [3] > 100 µM | [4] > 100 µM | [19] > 100 µM | [5] > 100 µM | [6] > 100 µM | [7] > 100 µM | [8] > 100 µM | [9] > 100 µM | [10] > 100 µM | [11] > 100 µM | [12] > 100 µM | [13] > 100 µM | [14] > 100 µM | [15] > 100 µM | [16] > 100 µM | [17] > 100 µM

OC1=C2c3ccccc3NC2Oc2cc(F)ccc21 (centres undefined)
inactive: [1] 13.9 µM | [2] 25.1 µM | [18] 16.4 µM | [3] 18.8 µM | [4] 18.5 µM | [19] 16.6 µM | [5] 16 µM | [6] 3.6 µM | [7] 15.6 µM | [8] 24.9 µM | [9] 18.7 µM | [10] 16 µM | [11] 20.3 µM | [12] 12.7 µM | [13] 19.8 µM | [20] 15.3 µM | [15] 20.4 µM | [16] 15.8 µM | [17] 14.7 µM

CN[C@@H](C)[C@H](OP(=O)(O)OC1[C@@H](O)[C@H](O)C(O)[C@H](O)[C@@H]1O)c1ccccc1 (some centres undefined)
inactive: [1] > 100 µM | [2] > 100 µM | [3] > 100 µM | [4] > 100 µM | [19] > 100 µM | [5] > 100 µM | [6] > 100 µM | [8] > 100 µM | [9] > 100 µM | [10] > 100 µM | [11] > 100 µM | [12] > 100 µM | [13] > 100 µM | [20] > 100 µM | [14] 16.3 µM | [15] > 100 µM | [16] > 100 µM | [17] > 100 µM

CC1(C)O[C@@H](CP(c2cccc3ccccc23)c2cccc3ccccc23)[C@H](CP(c2cccc3ccccc23)c2cccc3ccccc23)O1
inactive: [1] > 100 µM | [2] > 100 µM | [18] > 100 µM | [3] > 100 µM | [4] > 100 µM | [19] > 100 µM | [5] > 100 µM | [6] > 100 µM | [7] > 100 µM | [8] > 100 µM | [9] > 100 µM | [10] > 100 µM | [11] > 100 µM | [12] > 100 µM | [13] > 100 µM | [16] > 100 µM | [17] > 100 µM

Nc1nc(N)c(C2=CCN(Cc3ccccc3)CC2)c(=O)[nH]1
inactive: [1] > 100 µM | [3] > 100 µM | [4] > 100 µM | [19] > 100 µM | [5] > 100 µM | [6] > 100 µM | [7] > 100 µM | [8] > 100 µM | [9] > 100 µM | [10] > 100 µM | [11] > 100 µM | [12] > 100 µM | [13] > 100 µM | [20] > 100 µM | [14] > 100 µM | [15] > 100 µM | [16] > 100 µM | [17] > 100 µM

COc1cc(N(CCC#N)CCC#N)ccc1C(=N/NC(=O)c1cc(Br)ccc1O)/N=N/c1ccc(C)cc1
inactive: [1] 18.5 µM | [2] 23.9 µM | [18] 17.9 µM | [3] 20.6 µM | [4] 27.4 µM | [19] 18.4 µM | [5] 18 µM | [6] 21.7 µM | [7] 37.2 µM | [8] 17.4 µM | [9] 27 µM | [10] 32.1 µM | [11] 25.6 µM | [12] 24.2 µM | [13] 32.6 µM | [14] 29 µM | [15] 29.3 µM | [16] 30.9 µM | [17] 31 µM

Clc1ccc(Nc2nnc(CNc3ccc(-c4nnc(Nc5ccc(Cl)cc5)s4)cc3)s2)cc1
inactive: [1] 4.68 µM | [2] 46.3 µM | [3] 15 µM | [4] 22.5 µM | [19] 27.5 µM | [5] 71.9 µM | [6] 49.1 µM | [7] 7.71 µM | [8] 17.9 µM | [9] 20.2 µM | [10] 24.2 µM | [11] 30.1 µM | [12] 47.3 µM | [13] 11 µM | [20] 28.9 µM | [15] 52.5 µM | [16] 18.2 µM | [17] 24.9 µM

COC(=O)C(CC(C)C)NC(=O)C(N)Cc1ccc(OCc2ccccc2)cc1 (centres undefined) (H-Tyr(Bn)-Leu-OMe; configuration not given here)
inactive: [1] > 10 µM | [2] > 10 µM | [18] > 10 µM | [3] > 10 µM | [4] > 10 µM | [19] > 10 µM | [5] > 10 µM | [6] > 10 µM | [7] > 10 µM | [9] > 10 µM | [10] > 10 µM | [11] > 10 µM | [12] > 10 µM | [13] > 10 µM | [20] > 10 µM | [14] > 10 µM | [15] 2.9 µM | [16] > 10 µM | [17] > 10 µM
